Assay results taken from ChEMBL document CHEMBL5030563, “Structure-Based Design of Dual-Acting Compounds Targeting Adenosine A2A Receptor and Histone Deacetylase as Novel Tumor Immunotherapeutic Agents” (J Med Chem, 2021).

Assays:
Adenosine receptor A3 = molecular target: T1, Adenosine receptor A3 (Homo sapiens, UniProt P0DMS8); assay: Displacement of [3H]DPCPX from human adenosine A3 receptor membrane (unknown origin) measured after 60 mins by scintillation counting analysis; assay type: cell membranes
T1 sequence (P0DMS8 whole entry): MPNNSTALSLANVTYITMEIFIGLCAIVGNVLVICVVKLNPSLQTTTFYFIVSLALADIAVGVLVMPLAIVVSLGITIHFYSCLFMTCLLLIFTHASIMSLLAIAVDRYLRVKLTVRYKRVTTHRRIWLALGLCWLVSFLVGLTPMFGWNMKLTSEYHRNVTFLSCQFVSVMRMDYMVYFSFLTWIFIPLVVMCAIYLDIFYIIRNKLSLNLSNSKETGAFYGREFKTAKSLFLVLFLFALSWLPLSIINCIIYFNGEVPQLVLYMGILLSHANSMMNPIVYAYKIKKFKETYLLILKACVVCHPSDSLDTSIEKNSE

CT26 = assay: Antiproliferative activity against mouse CT26 cells measured after 72 hrs by CCK8 assay; assay type: functional; settings: Mus musculus, CT26
MC-38 = assay: Antiproliferative activity against mouse MC38 cells measured after 72 hrs by CCK8 assay; assay type: functional; settings: Mus musculus, MC-38
[1] = MRT in ICR mouse at 20 mg/kg, po by LC-MS/MS analysis; assay type: ADME, organism-based; settings: in vivo
[2] = AUC (0 to infinity) in ICR mouse at 20 mg/kg, po by LC-MS/MS analysis; assay type: ADME, organism-based; parameters: time infinity, route oral, dose 20 mg/kg; settings: in vivo
[3] = AUC (0 to t) in ICR mouse at 20 mg/kg, po by LC-MS/MS analysis; assay type: ADME, organism-based; parameters: dose 20 mg/kg; settings: in vivo
[4] = Cmax in ICR mouse at 20 mg/kg, po by LC-MS/MS analysis; assay type: ADME, organism-based; parameters: route oral, dose 20 mg/kg; settings: in vivo
[5] = Tmax in ICR mouse at 20 mg/kg, po by LC-MS/MS analysis; assay type: ADME, organism-based; settings: in vivo
[6] = Half life in ICR mouse at 20 mg/kg, po by LC-MS/MS analysis; assay type: ADME, organism-based; settings: in vivo
[7] = Elimination rate constant in ICR mouse at 20 mg/kg, po up to 24 hrs by LC-MS/MS analysis; assay type: ADME, organism-based; settings: in vivo
Histone deacetylase 1 = Histone deacetylase 1 (Homo sapiens, UniProt Q13547); assay: Inhibition of HDAC1 (unknown origin) assessed as release of 7-amino-4-methylcoumarin incubated in room temperature for 15 min measured by Spectra max microtitre plate reader
Chain of Histone deacetylase 1 (Q13547 whole entry): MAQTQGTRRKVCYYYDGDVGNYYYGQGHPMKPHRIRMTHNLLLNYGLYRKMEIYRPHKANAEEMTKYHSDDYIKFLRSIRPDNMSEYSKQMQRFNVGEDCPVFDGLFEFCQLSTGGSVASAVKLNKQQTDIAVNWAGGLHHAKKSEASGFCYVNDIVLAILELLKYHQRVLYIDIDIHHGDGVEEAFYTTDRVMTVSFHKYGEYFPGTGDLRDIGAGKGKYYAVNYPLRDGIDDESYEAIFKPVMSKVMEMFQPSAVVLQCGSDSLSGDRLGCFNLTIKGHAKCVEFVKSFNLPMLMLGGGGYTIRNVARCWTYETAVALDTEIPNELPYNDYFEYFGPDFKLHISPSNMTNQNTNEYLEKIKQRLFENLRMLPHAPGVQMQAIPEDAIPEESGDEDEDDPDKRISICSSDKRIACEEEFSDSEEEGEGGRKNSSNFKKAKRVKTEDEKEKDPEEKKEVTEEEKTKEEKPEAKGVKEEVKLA

Adenosine receptor A2a = Adenosine receptor A2a (Homo sapiens, UniProt P29274); assay: Displacement of [3H]SCH58261 from adenosine A2A receptor membrane (unknown origin) measured after 60 mins by scintillation counting analysis; assay type: cell membranes
Chain of Adenosine receptor A2a (P29274 whole entry): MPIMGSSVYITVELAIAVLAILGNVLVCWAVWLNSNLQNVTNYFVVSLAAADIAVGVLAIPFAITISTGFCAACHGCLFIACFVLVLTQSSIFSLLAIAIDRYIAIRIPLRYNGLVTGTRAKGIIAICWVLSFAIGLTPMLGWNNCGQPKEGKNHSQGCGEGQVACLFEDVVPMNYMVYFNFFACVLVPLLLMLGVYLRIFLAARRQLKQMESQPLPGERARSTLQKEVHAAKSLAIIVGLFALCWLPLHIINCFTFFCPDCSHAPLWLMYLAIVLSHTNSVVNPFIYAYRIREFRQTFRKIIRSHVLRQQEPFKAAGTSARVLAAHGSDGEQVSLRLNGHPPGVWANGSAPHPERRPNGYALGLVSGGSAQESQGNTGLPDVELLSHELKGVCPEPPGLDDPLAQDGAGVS

SMILES | Ki (Adenosine receptor A3) [µM] | GI50 (CT26) [µM] | GI50 (MC-38) [µM] | MRT [1] [h] | AUC(0-inf) [2] [ng·h/mL] | AUC(0-t) [3] [ng·h/mL] | Cmax [4] [ng/mL] | Tmax [5] [h] | half-life [6] [h] | k el at 24 h [7] [s⁻¹] | IC50 (Histone deacetylase 1) [µM] | Ki (Adenosine receptor A2a) [µM]
Nc1nc2c(cnn2CCc2ccccc2)c2nc(-c3ccco3)nn12 [SCH-58261] | > 10 | > 100 | > 100 |  |  |  |  |  |  |  |  | 
N#Cc1cccc(-c2nc3c4cnn(CCc5ccc(C(=O)Nc6ccccc6N)cc5)c4nc(N)n3n2)c1 |  | 6.9 | 5.4 | 2.44 | 602 | 588 | 598 | 0.25 | 4.08 | 5.67e-05 | 0.113 | 0.0065
